Results taken from patent US20230146233A1, “A CLASS OF POLYCYCLIC COMPOUNDS INHIBITING RNA HELICASE DHX33 AND THE APPLICATION THEREOF” (Shenzhen KeYe Life Technologies, Co., Ltd, priority 2020, published 2023).

What follows are compounds tested on U251-MG cells (assay: Half-maximal cell-inhibitory concentration on U251-MG cells (CCK-8)). Details: Homo sapiens, U-251, U251-MG cells (DHX33-overexpressing cancer cell strain), 48 hours, read-out: IC50 (half-maximal inhibitory concentrations of compounds on U251-MG cells).
Type: cell-based
Experimental: U251-MG cells were purchased from the cell bank of the Chinese Academy of Sciences. Cells were cultured in MEM medium containing 10% fetal bovine serum (FBS), 2 mM L-glutammie, streptomycmn and penicillin. The growth conditions were set as follows: a humidified cell incubator (37° C., 5% CO2). Cells were passaged every 3 days and were discarded after 10 passages.
U251-MG cells (a […]-overexpressing cancer cell strain) were seeded on a 96-well plate at 1×10^4 cells/100 μl/well. After the cells were completely attached, the compounds were added to the cell culture medium at a concentration of 5 nM, 10 nM, 25 nM, 50 nM, 100 nM, […], 500 nM, 1000 nM, 2000 nM, […] or 20 μM, and the resulting mixture was uniformly mixed with a multichannel pipette. After the cells were incubated with the compound for 48 hours, CCK-8 reagent (Yeasen Biotechnology (Shanghai) Co., Ltd.) was added to the medium in the 96-well plate in accordance with the standard procedure. After being incubated for 2 hours, the plate was read with a microplate reader (OD=450 nm). The experiment was repeated three times, the inhibition curve of the compound at different concentrations was plotted, and the half-maximal inhibitory concentration (IC50) of the compound was calculated.

IC50, 0.1 to 1 µM:
COC(=O)c1c(-n2c(C)cc(/C=C(\C#N)c3nc4ccccc4[nH]3)c2C)sc(C)c1C [AB24273, methyl (E)-2-(3-(2-(1H-benzo[d]imidazol-2-yl)-2-cyanovinyl)-2,5-dimethyl-1H-pyrrol-1-yl)-4,5-dimethylthiophene-3-carboxylate]
COc1cnc2[nH]c(/C(C#N)=C/c3cc(C)n(-c4sc(C)c(C)c4C#N)c3C)nc2c1 [AB24301, (E)-2-(3-(2-cyano-2-(6-methoxy-3H-imidazo[4,5-b]pyridin-2-yl)vinyl)-2,5-dimethyl-1H-pyrrol-1-yl)-4,5-dimethylthiophene-3-carbonitrile]

IC50, 1 to 5 µM:
Cc1oc(-n2c(C)cc(/C=C(\C#N)c3nc4ccc(Cl)cc4[nH]3)c2C)c(C#N)c1C [AB24201, (E)-2-(3-(2-(6-chloro-1H-benzo[d]imidazol-2-yl)-2-cyanovinyl)-2,5-dimethyl-1H-pyrrol-1-yl)-4,5-dimethylfuran-3-carbonitrile]
Cc1ccc2nc(/C(C#N)=C/c3cc(C)n(-c4oc(C)c(C)c4C#N)c3C)[nH]c2c1 [AB24203, (E)-2-(3-(2-cyano-2-(6-methyl-1H-benzo[d]imidazol-2-yl]vinyl)-2,5-dimethyl-1H-pyrrol-1-yl)-4,5-dimethylfuran-3-carbonitrile]
Cc1oc(-n2c(C)cc(/C=C(\C#N)c3nc4ccc(C(=O)NCCN(C)C)cc4[nH]3)c2C)c(C#N)c1C [AB24206, (E)-2-(1-cyano-2-(1-(3-cyano-4,5-dimethylfuran-2-yl)-2,5-dimethyl-1H-pyrrol-3-yl)vinyl)-N-(2-(dimethylamino)ethyl)-1H-benzo[d]imidazole-6-carboxamide]
Cc1oc(-n2c(C)cc(/C=C(\C#N)c3nc4ccc(Br)cc4[nH]3)c2C)c(C#N)c1C [AB24213, (E)-2-(3-(2-(6-bromo-1H-benzo[d]imidazol-2-yl)-2-cyanovinyl)-2,5-dimethyl-1H-pyrrol-1-yl)-4,5-dimethylfuran-3-carbonitrile]
Cc1oc(-n2c(C)cc(/C=C(\C#N)c3nc4ccc(CO)cc4[nH]3)c2C)c(C#N)c1C [AB24225, (E)-2-(3-(2-cyano-2-(6-(hydroxymethyl)-1H-benzo[d]imidazol-2-yl)vinyl)-2,5-dimethyl-1H-pyrrol-1-yl)-4,5-dimethylfuran-3-carbonitrile]
COc1cc2nc(/C(C#N)=C/c3cc(C)n(-c4oc(C)c(C)c4C#N)c3C)[nH]c2cc1OC [AB24229, (E)-2-(3-(2-cyano-2-(5,6-dimethoxy-1H-benzo[d]imidazol-2-yl)vinyl)-2,5-dimethyl-H-pyrrol-1-yl)-4,5-dimethylfuran-3-carbonitrile]
Cc1oc(-n2c(C)cc(/C=C(\C#N)c3nc4cc(Cl)cc(Cl)c4[nH]3)c2C)c(C#N)c1C [AB24239]
COc1cc2[nH]c(/C(C#N)=C/c3cc(C)n(-c4oc(C)c(C)c4C#N)c3C)nc2cc1F [AB24246, (E)-2-(3-(2-cyano-2-(5-fluoro-6-methoxy-1H-benzo[d]imidazol-2-yl]vinyl)-2,5-dimethyl-1H-pyrrol-1-yl)-4,5-dimethylfuran-3-carbonitrile]
COc1cc2[nH]c(/C(C#N)=C/c3cc(C)n(-c4oc(C)c(C)c4C#N)c3C)nc2cc1Br [AB24266, (E)-2-(3-(2-(5-bromo-6-methoxy-1H-benzo[d]imidazol-2-yl]-2-cyanovinyl)-2,5-dimethyl-1H-pyrrol-1-yl)-4,5-dimethylfuran-3-carbonitrile]
COc1ccc2nc(/C(C#N)=C/c3cc(C)n(-c4oc(C)c(C)c4C#N)c3C)[nH]c2n1 [AB24281, (E)-2-(3-(2-cyano-2-(5-methoxy-3H-imidazo[4,5-b]pyridin-2-yl)vinyl)-2,5-dimethyl-1H-pyrrol-1-yl)-4,5-dimethylfuran-3-carbonitrile]
Cc1oc(-n2c(C)cc(/C=C(\C#N)c3nc4cc5c(cc4[nH]3)OCCO5)c2C)c(C#N)c1C [AB24287, (E)-2-(3-(2-cyano-2-(6,7-dihydro-1H-[1,4]dioxin[2′,3′: 4,5]benzo[1,2-d]imidazol-2-yl)vinyl)-2,5-dimethyl-1H-pyrrol-1-yl)-4,5-dimethylfuran-3-carbonitrile]
COc1cc2nc(/C(C#N)=C/c3cc(C)n(-c4ccncc4Cl)c3C)[nH]c2cn1 [AB24289, (E)-3-(1-(3-chloropyridin-4-yl)-2,5-dimethyl-1H-pyrrol-3-yl)-2-(6-methoxy-3H-imidazo[4,5-c]pyridin-2-yl)acryonitrile]
COc1cc2nc(/C(C#N)=C/c3cc(C)n(-c4ccncc4C)c3C)[nH]c2cn1 [AB24295, (E)-3-(2,5-dimethyl-1-(3-methylpyridin-4-yl)-1H-pyrrol-3-yl)-2-(6-methoxy-3H-imidazo[4,5-c]pyridin-2-yl)acrylonitrile]
COc1cc2nc(/C(C#N)=C/c3cc(C)n(-c4ccncc4F)c3C)[nH]c2cn1 [AB24300, (E)-3-(1-(3-fluoropyridin-4-yl)-2,5-dimethyl-1H-pyrrol-3-yl)-2-(6-methoxy-3H-imidazo[4,5-c]pyridin-2-yl)acrylonitrile]
COc1cncc2nc(/C(C#N)=C/c3cc(C)n(-c4sc(C)c(C)c4C#N)c3C)[nH]c12 [AB24302, (E)-2-(3-(2-cyano-2-(7-methoxy-1H-imidazo[4,5-c]pyridyl-2-yl)vinyl)-2,5-dimethyl-1H-pyrrol-1-yl)-4,5-dimethylthiophene-3-carbonitrile]
COc1nccc2nc(/C(C#N)=C/c3cc(C)n(-c4sc(C)c(C)c4C#N)c3C)[nH]c12 [AB24309]

IC50, 5 to 20 µM:
CCOC(=O)c1ccc2nc(/C(C#N)=C/c3cc(C)n(-c4oc(C)c(C)c4C#N)c3C)[nH]c2c1 [AB24208, ethyl (E)-2-(1-cyano-2-(1-(3-cyano-4,5-dimethylfuran-2-yl)-2,5-dimethyl-1H-pyrrol-3-yl)vinyl)-1H-benzo[d]imidazole-6-carboxylate]
Cc1oc(-n2c(C)cc(/C=C(\C#N)c3nc4cc(Cl)c(Cl)cc4[nH]3)c2C)c(C#N)c1C [AB24214, (E)-2-(3-(2-cyano-2-(5,6-dichloro-1H-benzo[d]imidazol-2-yl)vinyl)-2,5-dimethyl-1H-pyrrol-1-yl)-4,5-dimethylfuran-3-carbonitrile]
Cc1oc(-n2c(C)cc(/C=C(\C#N)c3nc4ccc([N+](=O)[O-])cc4[nH]3)c2C)c(C#N)c1C [AB24217, (E)-2-(3-(2-cyano-2-(6-nitro-1H-benzo[d]imidazol-2-yl)vinyl)-2,5-dimethyl-1H-pyrrol-1-yl)-4,5-dimethylfuran-3-carbonitrile]
Cc1oc(-n2c(C)cc(/C=C(\C#N)c3nc4ccc(N)cc4[nH]3)c2C)c(C#N)c1C [AB24221, (E)-2-(3-(2-(6-amino-1H-benzo[d]imidazol-2-yl)-2-cyanovinyl)-2,5-dimethyl-1H-pyrrol-1-yl)-4,5-dimethylfiran-3-carbonitrile]
Cc1cc(/C=C(\C#N)c2nc3ccccc3[nH]2)c(C)n1-c1ccc(C#N)cc1 [AB24223]
Cc1cc(/C=C(\C#N)c2nc3ccccc3[nH]2)c(C)n1-c1ccccc1C#N [AB24227]
Cc1cc(/C=C(\C#N)c2nc3ccccc3[nH]2)c(C)n1-c1cccs1 [AB24233]
Cc1ccc(-n2c(C)cc(/C=C(\C#N)c3nc4ccccc4[nH]3)c2C)cc1 [AB24237]
Cc1cc(/C=C(\C#N)c2nc3ccccc3[nH]2)c(C)n1-c1ccccn1 [AB24258]
CC(=O)Nc1ccc(-n2c(C)cc(/C=C(\C#N)c3nc4ccccc4[nH]3)c2C)cc1 [AB24267]
Cc1cc(/C=C(\C#N)c2nc3ccccc3[nH]2)c(C)n1-c1csc(C#N)c1 [AB24276]
Cc1csc(-n2c(C)cc(/C=C(\C#N)c3nc4ccccc4[nH]3)c2C)c1C#N [AB24277]
Cc1nn(-c2ccccc2)c(C)c1/C=C(\C#N)c1nc2ccccc2[nH]1 [AB24284, (E)-2-(1H-benzo[d]imidazol-2-yl)-3-(3,5-dimethyl-1-phenyl-1H-pyrazol-4-yl)acrylonitrile]
Cc1nn(-c2cccc(C(F)(F)F)c2)c(C)c1/C=C(\C#N)c1nc2ccccc2[nH]1 [AB24285, (E)-2-(1H-benzo[d]imidazol-2-yl)-3-(3,5-dimethyl-1-(3-(trifluoromethyl)phenyl)-1H-pyrazol-4-yl)acrylonitrile]
Cc1nn(-c2ccccc2OC(F)(F)F)c(C)c1/C=C(\C#N)c1nc2ccccc2[nH]1 [AB24290, (E)-2-(1H-benzo[d]imidazol-2-yl)-3-(3,5-dimethyl-1-(2-(trifluoromethoxy)phenyl)-1H-pyrazol-4-yl)acrylonitrile]
COc1ccc2nc(/C(C#N)=C/c3cc(C)n(-c4ccccc4C#N)c3C)[nH]c2c1 [AB24307, (E)-2-(3-(2-cyano-2-(6-methoxy-1H-benzo[d]imidazol-2-yl]vinyl)-2,5-dimethyl-1H-pyrrol-1-yl)benzonitrile]

IC50, < 0.1 µM:
COc1cc2nc(/C(C#N)=C/c3cc(C)n(-c4sc(C)c(C)c4C#N)c3C)[nH]c2cn1 [AB24308, (E)-2-(3-(2-cyano-2-(6-methoxy-3H-imidazo[4,5-c]pyridin-2-yl)vinyl)-2,5-dimethyl-1H-pyrrol-1-yl)-4,5-dimethylthiophene-3-carbonitrile]
